For 46 compounds, outcome and Potency results are on record in PubChem BioAssay AID1576 (EPA DSSTox, 2009).

Calls of active or inactive are those of the source.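 The calls were made as follows: active = chemicals shown by follow-up kinetic tests to compete for rat estrogen receptor sites, with a measured inhibition constant; inconclusive = some binding seen but constant unmeasurable owing to poor solubility; inactive = no binding up to top dose, or binding unconfirmed.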

Sequence of Estrogen receptor (Rattus norvegicus) (P06211 whole entry, looked up): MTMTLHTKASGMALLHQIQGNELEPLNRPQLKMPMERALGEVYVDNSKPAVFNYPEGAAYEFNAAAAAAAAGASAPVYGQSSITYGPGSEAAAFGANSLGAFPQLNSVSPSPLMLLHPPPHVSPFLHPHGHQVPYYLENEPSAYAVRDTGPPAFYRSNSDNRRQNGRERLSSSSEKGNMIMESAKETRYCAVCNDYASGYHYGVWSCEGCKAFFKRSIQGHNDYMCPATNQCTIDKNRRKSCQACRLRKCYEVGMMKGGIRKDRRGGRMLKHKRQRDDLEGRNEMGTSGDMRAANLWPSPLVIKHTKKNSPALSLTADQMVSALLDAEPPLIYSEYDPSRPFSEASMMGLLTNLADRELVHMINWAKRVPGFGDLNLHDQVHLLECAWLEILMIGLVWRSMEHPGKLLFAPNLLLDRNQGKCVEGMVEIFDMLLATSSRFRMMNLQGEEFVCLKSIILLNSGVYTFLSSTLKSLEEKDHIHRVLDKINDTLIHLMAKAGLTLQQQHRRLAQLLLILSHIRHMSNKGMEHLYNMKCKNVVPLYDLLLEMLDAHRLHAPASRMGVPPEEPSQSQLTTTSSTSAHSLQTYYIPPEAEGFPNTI

One data set concerns the target Estrogen receptor (Rattus norvegicus) (UniProt P06211). The data set can be described thus: DSSTox (KIERBL) EPA Estrogen Receptor Ki Binding Study (Laws et al.) Database. As to conditions: Rat uterine cytosol ER, 3H-estradiol competitive binding. How it is done:
This study was conducted by EPA researchers to evaluate the validity of the rat uterine cytosolic (RUC) estrogen receptor (ER) competitive binding assay for use in the Endocrine Disruption Screening Program (EDSP). The assay measures the ability of radiolabeled 17-beta-estradiol (3H-E2) to bind with RUC ER in the presence of increasing concentrations of a test chemical. The goal is to employ this in vitro assay as a 1st tier screening tool for assessing the potential of structurally diverse environmental chemicals to bind to the ER, as well as to support research efforts to develop computational models to predict ER binding. A distinguishing feature of the present study was the use of secondary experimental analysis of binding curves and determination of Ki values to confirm that measured IC50 values corresponded to true positive results. The study concluded that a number of experimental conditions can confound interpretation of IC50 values obtained from the RUC ER-binding assay data and lead to false positive results. In particular, some chemical treatments likely alter the stability of the assay by changing the buffer pH, denaturing ER, or disrupting the ER binding kinetics. […] The chemicals used in this study were selected as part of a validation test for two Quantitative Structure-Activity Relationship (QSAR) models designed to predict ER binding [Fed. Reg. 67(250), 79618, Dec. 30, 2002]. Several hundred chemicals were initially screened, including approximately 100 chemicals selected from among the High Production Volume (HPV) chemicals included in EPA's Toxic Substances Control Act (TSCA) inventory that were predicted to be positive for ER binding, with the rest selected at random from the TSCA inventory. All chemicals were initially tested in ER competitive binding assays by Battelle Pacific Northwest Laboratories, Richland, Washington [EPA Contract Number 68-W-99-033, Task 6]. Approximately 50 chemicals produced binding curves that: (1) strongly implied competitive inhibition of ER binding, or (2) produced partial curves or irregular (non-sigmoid) binding curves. These chemicals were further evaluated in an ER competitive binding assay with secondary analysis to confirm true competitive inhibition and to determine an experimental Ki [U.S. EPA Contract 3D-5967-NTEX]. The results of RUC ER screening for these 50 structurally diverse chemicals, for which secondary confirmatory analyses were performed, were published in the Main Citation (Laws et al., 2006, Tox. Sci. 94:46-56). The remaining 228 chemicals were designated as non-binders based on initial screening studies.
The DSSTox KIERBL data files include all published IC50 and Ki experimental results for the 50 chemicals included in the Main Citation (Laws et al., 2006) (denoted Group 1), as well as previously unpublished results for an additional 228 structually diverse TSCA chemicals for which no ER binding was observed (denoted Group 2. IC50 values were determined for 32 compounds in Group 1 as the concentration of a test chemical that inhibits the maximal specific binding of 0.33 nM radiolabeled (3H) 17-beta-estradiol (E2) to rat uterine cytosolic (RUC) estrogen receptor (ER) by 50%. Confirmation of binding status was accomplished by secondary analysis using Lineweaver-Burk plots and slope replots to determine true competitive inhibition and an experimental Ki value. Ki is the inhibition constant for the test chemical, i.e., the concentration of the test chemical that will bind to half the binding sites at equilibrium (displacing half of the probe-bound receptors), in the absence of radioligand or other competitors. Ki reported as Mean +/- Standard Error from n=2 experiments (see StandardError_Ki_n2) and is determined from Lineweaver-Burk plots over the tested dose range (TestedRange_microM). For more information see BindingCurve_Group and BindingCurve_Details. […]
With `Cc1cc(C(C)(C)C)c(O)c(C)c1Cn1c(=O)n(Cc2c(C)cc(C(C)(C)C)c(O)c2C)c(=O)n(Cc2c(C)cc(C(C)(C)C)c(O)c2C)c1=O`, the outcome is “inactive; none”. Take `CCC(CO)(CO)CO`: the outcome was “inactive; none”.

With `Fc1cccc(Cl)c1CCl`, the outcome is “inactive; none”. For `CCCCOC(=O)CCC(C)=O`, the outcome is “inactive; none”.

For `C[Si]1(C)N[Si](C)(C)N[Si](C)(C)N1`, the outcome is “inactive; incomplete”. On the same count and under the same terms, to `O=C(O)c1ccccc1Br` belongs “inactive; none”. Still for that read-out and setting: the value for `N#CCCSCCC#N` was “inactive; none”; that for `c1c[nH]cn1` was “inactive; none”.

In the case of `CC(C)CC(=O)O`, the outcome is “inactive; none”. For `CC(=O)CC(=O)N(C)C`, the outcome was “inactive; none”.

Regarding `CCO[Si](C)(CCCN)OCC`, the outcome was “inactive; none”. On the same count and under the same terms, the value for `Nc1ccc(F)c(Cl)c1` was “inactive; none”; that for `CCCCS` was “inactive; none”. Same read-out and setting: the value for `COc1cc(Cl)c(OC)cc1Cl` was “inactive; none”; that for `ClCC1OCCO1` was “inactive; none”. For the compound `CCC(C)N` (stereo unspecified), the outcome was “inactive; none”.

In the case of `CCOC(=O)c1ccccc1`, the outcome is “inactive; none”. Same read-out and setting: to `C[Si](O)(O)O` belongs “inactive; none”. With `C=C(C)c1ccc(C(=C)C)cc1`, the outcome is “inactive; none”. Take `OCCS`: the outcome is “inactive; none”. In the case of `CSc1ccc(C(=O)C(C)(C)N2CCOCC2)cc1`, the outcome is “inactive; none”. As to `OCCOc1ccc(OCCO)cc1`, the outcome is “inactive; none”. The same measure, in the same setting: the value for `CCCCCOC(C)=O` was “inactive; none”. Take `O=S(=O)(O)c1ccccc1Nc1ccc(C(=C2C=CC(=Nc3ccccc3)C=C2)c2ccc(Nc3ccccc3)cc2)cc1`: the outcome was “inactive; none”. Still for that read-out and setting: to `CCCCCCC(=O)O` belongs “inactive; none”. Take `COc1cc([N+](=O)[O-])ccc1N`: the outcome is “inactive; none”. Regarding `O=C(OCc1ccccc1)c1ccccc1O`, the outcome is “inactive; incomplete”. As for `CCSC(C)CC1CC(=O)C(/C(CC)=N/OC/C=C/Cl)=C(O)C1` (stereo unspecified), the outcome is “inactive; none”. For the compound `CCCCCCCCCCCCCCCCCCN=C=O`, the outcome is “inactive; none”. On the same count and under the same terms, the value for `C1CCC(NC2CCCCC2)CC1` was “inactive; none”; that for `CC(C)Oc1cc(-n2nc(C(C)(C)C)oc2=O)c(Cl)cc1Cl` was “inactive; none”. In the case of `COC(=O)CCCCC(=O)OC`, the outcome was “inactive; none”.

Regarding `CCCCCCCCCCCCCCC(Br)C(=O)O` (stereo unspecified), the outcome is “inactive; incomplete”.

As to `Cc1cccc[n+]1[O-]`, the outcome was “inactive; none”. As for `O=C1CCC(=O)O1`, the outcome is “inactive; none”. As to `O=C(OCc1ccccc1)C(=O)OCc1ccccc1`, the outcome is “inactive; none”. Still for that read-out and setting: to `O=P(O)(O)CCCl` belongs “inactive; none”; to `COC(=O)c1cccc(C)c1S(=O)(=O)NC(=O)Nc1nc(OCC(F)(F)F)nc(N(C)C)n1`, “inactive; none”; to `O=C(O)c1c(Cl)c(Cl)c(Cl)c(Cl)c1C1c2cc(Br)c(O)c(Br)c2Oc2c1cc(Br)c(O)c2Br`, “inactive; none”.

On to `CC1=CC(=C(c2ccc(N)cc2)c2ccc(N)cc2)C=CC1=N`, for which the outcome is “inactive; none”. Same read-out and setting: to `COc1nc(C)nc(NC(=O)NS(=O)(=O)c2ccccc2Cl)n1` belongs “inactive; none”. For the compound `c1ccc(-c2ccccc2)cc1`, the outcome is “inactive; none”.

Turning to `COc1ccc(C(=O)c2ccc(OC)cc2O)c(O)c1`, the outcome was “inactive; none”.

Staying with this data set, now noted: Rat uterine cytosol ER, 3H-estradiol competitive binding; TestedRange_microM: 0.5-10.
Take `CCCCCCCCCCCCCCCCCC[N+](C)(C)CCC[Si](OC)(OC)OC`: the outcome was “inactive; irregular”.

Staying with this data set, now noted: Rat uterine cytosol ER, 3H-estradiol competitive binding; TestedRange_microM: 0.6-1.2.
For the compound `CC(C)CCCCCCc1ccc(O)cc1`, the Potency is 0.6 µM.

Staying with this data set, now noted: Rat uterine cytosol ER, 3H-estradiol competitive binding; TestedRange_microM: 10-100.
As to `COC(OC)(C(=O)c1ccccc1)c1ccccc1`, the Potency was 136 µM.
